Laboratory results reported in patent EP0160578A1, “1,8-Naphthyridine derivatives” (DAIICHI SEIYAKU CO., LTD., priority 1984, dated 1985).
≈ marks a conversion by molar mass, not a printed value.

Legend:
Experiment in all cases: Antibacterial activity, dilution method in Muller-Hinton Bouillon (MIC)
Assay type in all cases: cell-based
Ps. cepacia, IID1340 = conditions: Burkholderia cepacia, 10^6/ml bacteria, 37°C, 18 hours, read-out: Minimal Inhibitory Concentration (MIC)
Procedure: (§1) The antibacterial activity of the compounds of the present invention was determined by the standard method of the Japan Society of Chemotherapy: according to the dilution method in Muller-Hinton Bouillon, 10^6/ml of bacteria were seeded and incubated at 37°C for 18 hours.

Pr. mirabilis, 1287 = conditions: Proteus mirabilis, 10^6/ml bacteria, 37°C, 18 hours, read-out: Minimal Inhibitory Concentration (MIC)
Procedure: as §1

S. aureus, Smith = conditions: Staphylococcus aureus, 10^6/ml bacteria, 37°C, 18 hours, read-out: Minimal Inhibitory Concentration (MIC)
Procedure: as §1

Pr. vulgaris, 3167 = conditions: Proteus vulgaris, 10^6/ml bacteria, 37°C, 18 hours, read-out: Minimal Inhibitory Concentration (MIC)
Procedure: as §1

Str. faecalis, ATCC19433 = conditions: Enterococcus faecalis, 10^6/ml bacteria, 37°C, 18 hours, read-out: Minimal Inhibitory Concentration (MIC)
Procedure: as §1

S. epidermis, 56556 = conditions: 10^6/ml bacteria, 37°C, 18 hours, read-out: Minimal Inhibitory Concentration (MIC)
Procedure: as §1

Str. pyogenes, G-36 = conditions: Streptococcus pyogenes, G36, 10^6/ml bacteria, 37°C, 18 hours, read-out: Minimal Inhibitory Concentration (MIC)
Procedure: as §1

Ps. aeruginosa, 2128 = conditions: Pseudomonas aeruginosa, 10^6/ml bacteria, 37°C, 18 hours, read-out: Minimal Inhibitory Concentration (MIC)
Procedure: as §1

Ps. maltophilia, IID1275 = conditions: Stenotrophomonas maltophilia, 10^6/ml bacteria, 37°C, 18 hours, read-out: Minimal Inhibitory Concentration (MIC)
Procedure: as §1

Ps. aeruginosa, 2063 = conditions: Pseudomonas aeruginosa, 10^6/ml bacteria, 37°C, 18 hours, read-out: Minimal Inhibitory Concentration (MIC)
Procedure: as §1

E. coli, NIHJ = conditions: Escherichia coli, 10^6/ml bacteria, 37°C, 18 hours, read-out: Minimal Inhibitory Concentration (MIC)
Procedure: as §1

Sh. flexneri, 2a5503 = conditions: Shigella flexneri, 10^6/ml bacteria, 37°C, 18 hours, read-out: Minimal Inhibitory Concentration (MIC)
Procedure: as §1

Ser. marcescens, 13001 = conditions: Serratia marcescens, 10^6/ml bacteria, 37°C, 18 hours, read-out: Minimal Inhibitory Concentration (MIC)
Procedure: as §1

Ps. aeruginosa, 2131 = conditions: Pseudomonas aeruginosa, 10^6/ml bacteria, 37°C, 18 hours, read-out: Minimal Inhibitory Concentration (MIC)
Procedure: as §1

| Structure (SMILES) | MIC (Ps. cepacia, IID1340) | MIC (Pr. mirabilis, 1287) | MIC (S. aureus, Smith) | MIC (Pr. vulgaris, 3167) | MIC (Str. faecalis, ATCC19433) | MIC (S. epidermis, 56556) | MIC (Str. pyogenes, G-36) | MIC (Ps. aeruginosa, 2128) | MIC (Ps. maltophilia, IID1275) | MIC (Ps. aeruginosa, 2063) | MIC (E. coli, NIHJ) | MIC (Sh. flexneri, 2a5503) | MIC (Ser. marcescens, 13001) | MIC (Ps. aeruginosa, 2131) |
| --- | --- | --- | --- | --- | --- | --- | --- | --- | --- | --- | --- | --- | --- | --- |
| O=C(O)c1cn(C2CC2)c2nc(N3CCNCC3)c(F)cc2c1=O [No. 1, 1-cyclopropyl-6-fluoro-7-(1-piperazinyl)-1,4-dihydro-4-oxo-1,8-naphthyridine-3-carboxylic acid] | 3.13 µg/mL (≈ 9.42 µM) | ≤ 0.05 µg/mL | 0.39 µg/mL (≈ 1.17 µM) | ≤ 0.05 µg/mL | 1.56 µg/mL (≈ 4.69 µM) | 0.39 µg/mL (≈ 1.17 µM) | 6.25 µg/mL (≈ 18.8 µM) | 0.1 µg/mL (≈ 0.301 µM) | 0.78 µg/mL (≈ 2.35 µM) | 0.1 µg/mL (≈ 0.301 µM) | ≤ 0.05 µg/mL | ≤ 0.05 µg/mL | ≤ 0.05 µg/mL | 0.1 µg/mL (≈ 0.301 µM) |
| O=C(O)c1cn(C2CC2)c2nc(N3CCCNCC3)c(F)cc2c1=O [No. 5, 1-cyclopropyl-6-fluoro-7-(1-homopiperazinyl)-1,4-dihydro-4-oxo-1,8-naphthyridine-3-carboxylic acid] | 0.78 µg/mL (≈ 2.25 µM) | 0.1 µg/mL (≈ 0.289 µM) | 0.39 µg/mL (≈ 1.13 µM) | ≤ 0.05 µg/mL | 6.25 µg/mL (≈ 18 µM) | 0.39 µg/mL (≈ 1.13 µM) | 12.5 µg/mL (≈ 36.1 µM) | 0.1 µg/mL (≈ 0.289 µM) | 1.56 µg/mL (≈ 4.5 µM) | 0.2 µg/mL (≈ 0.577 µM) | ≤ 0.05 µg/mL | ≤ 0.05 µg/mL | 0.1 µg/mL (≈ 0.289 µM) | 0.2 µg/mL (≈ 0.577 µM) |
| CN1CCCN(c2nc3c(cc2F)c(=O)c(C(=O)O)cn3C2CC2)CC1 [No. 6, 1-cyclopropyl-6-fluoro-7-(N-methyl-1-homopiperazinyl)-1,4-dihydro-4-oxo-1,8-naphthyridine-3-carboxylic acid] | 0.78 µg/mL (≈ 2.16 µM) | 0.2 µg/mL (≈ 0.555 µM) | 0.39 µg/mL (≈ 1.08 µM) | 0.1 µg/mL (≈ 0.277 µM) | 6.25 µg/mL (≈ 17.3 µM) | 0.39 µg/mL (≈ 1.08 µM) | 6.25 µg/mL (≈ 17.3 µM) | 0.39 µg/mL (≈ 1.08 µM) | 0.39 µg/mL (≈ 1.08 µM) | 0.78 µg/mL (≈ 2.16 µM) | ≤ 0.05 µg/mL | 0.1 µg/mL (≈ 0.277 µM) | 0.2 µg/mL (≈ 0.555 µM) | 0.78 µg/mL (≈ 2.16 µM) |
| CN1CCN(c2nc3c(cc2F)c(=O)c(C(=O)O)cn3C2CC2)CC1 [No. 4, 1-cyclopropyl-6-fluoro-7-(4-methyl-1-piperazinyl)-1,4-dihydro-4-oxo-1,8-naphthyridine-3-carboxylic acid] | 1.56 µg/mL (≈ 4.5 µM) | ≤ 0.05 µg/mL | 0.2 µg/mL (≈ 0.577 µM) | ≤ 0.05 µg/mL | 3.13 µg/mL (≈ 9.04 µM) | 0.39 µg/mL (≈ 1.13 µM) | 6.25 µg/mL (≈ 18 µM) | 0.2 µg/mL (≈ 0.577 µM) | 0.39 µg/mL (≈ 1.13 µM) | 0.39 µg/mL (≈ 1.13 µM) | ≤ 0.05 µg/mL | ≤ 0.05 µg/mL | ≤ 0.05 µg/mL | 0.39 µg/mL (≈ 1.13 µM) |
| CC1CN(c2nc3c(cc2F)c(=O)c(C(=O)O)cn3C2CC2)CCN1 (stereo not shown) [No. 7, 1-cyclopropyl-6-fluoro-7-(3-methyl-1-piperazinyl)-1,4-dihydro-4-oxo-1,8--naphthyridine-3-carboxylic acid] | 0.39 µg/mL (≈ 1.13 µM) | 0.1 µg/mL (≈ 0.289 µM) | 0.39 µg/mL (≈ 1.13 µM) | ≤ 0.05 µg/mL | 3.13 µg/mL (≈ 9.04 µM) | 0.78 µg/mL (≈ 2.25 µM) | 1.56 µg/mL (≈ 4.5 µM) | 0.2 µg/mL (≈ 0.577 µM) | 0.39 µg/mL (≈ 1.13 µM) | 0.2 µg/mL (≈ 0.577 µM) | ≤ 0.05 µg/mL | ≤ 0.05 µg/mL | ≤ 0.05 µg/mL | 0.1 µg/mL (≈ 0.289 µM) |
| O=C(O)c1cn(C2CC2)c2nc(N3CCC(O)C3)c(F)cc2c1=O (stereo not drawn) [No. 3, l-cyclopropyl-6-fluoro-7-(3-hydroxy-l-pyrrolidinyl)-1,4-dihydro-4-oxo-1,8-naphthyridine-3-carboxylic acid] | 0.39 µg/mL (≈ 1.17 µM) | ≤ 0.05 µg/mL | ≤ 0.05 µg/mL | ≤ 0.05 µg/mL | 0.39 µg/mL (≈ 1.17 µM) | 0.1 µg/mL (≈ 0.3 µM) | 1.56 µg/mL (≈ 4.68 µM) | 0.39 µg/mL (≈ 1.17 µM) | 0.39 µg/mL (≈ 1.17 µM) | 0.39 µg/mL (≈ 1.17 µM) | ≤ 0.05 µg/mL | ≤ 0.05 µg/mL | 0.1 µg/mL (≈ 0.3 µM) | 0.78 µg/mL (≈ 2.34 µM) |
| NC1CCN(c2nc3c(cc2F)c(=O)c(C(=O)O)cn3C2CC2)C1 (stereo not shown) [No. 2, 1-cyclopropyl-6-fluoro-7-(3-amino-1-pyrrolidinyl)-1,4-dihydro-4-oxo-1,8--naphthyridine-3-carboxylic acid] | 0.39 µg/mL (≈ 1.17 µM) | ≤ 0.05 µg/mL | 0.1 µg/mL (≈ 0.301 µM) | ≤ 0.05 µg/mL | 0.39 µg/mL (≈ 1.17 µM) | 0.1 µg/mL (≈ 0.301 µM) | 0.78 µg/mL (≈ 2.35 µM) | ≤ 0.05 µg/mL | 0.39 µg/mL (≈ 1.17 µM) | ≤ 0.05 µg/mL | ≤ 0.05 µg/mL | ≤ 0.05 µg/mL | ≤ 0.05 µg/mL | 0.1 µg/mL (≈ 0.301 µM) |
| CCn1cc(C(=O)O)c(=O)c2cc(F)c(N3CCNCC3)nc21 [Control Compound, 1-ethyl-6-fluoro-7-(1-piperazinyl)-1,4-dihydro-4-oxo-1,8-naphthyridine-3-carboxylic acid, reference compound] | 50 µg/mL (≈ 156 µM) | 0.2 µg/mL (≈ 0.624 µM) | 0.78 µg/mL (≈ 2.44 µM) | 0.2 µg/mL (≈ 0.624 µM) | 6.25 µg/mL (≈ 19.5 µM) | 0.78 µg/mL (≈ 2.44 µM) | 25 µg/mL (≈ 78 µM) | 0.78 µg/mL (≈ 2.44 µM) | 0.78 µg/mL (≈ 2.44 µM) | 0.78 µg/mL (≈ 2.44 µM) | 0.2 µg/mL (≈ 0.624 µM) | 0.2 µg/mL (≈ 0.624 µM) | 0.2 µg/mL (≈ 0.624 µM) | 0.2 µg/mL (≈ 0.624 µM) |
